The values below come from the supplement of paper PMC12463676, “Small-molecule dissolution of stress granules by redox modulation benefits ALS models” (Nature Chemical Biology, 2025).

Compound in assay [1]: NC(=O)CCCCC1CCSS1 [lipoamide]
The experiment in a line: thermal stability z-score vs DMSO; higher = more thermally stabilized by treatment. As to conditions: HeLa, lipoamide concentration 100 µM. The method, then:
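Cellular thermal proteome profiling in HeLa cells. Cells were treated with 100 µM lipoamide for 1 h, with or without 1 mM arsenate for a further 1 h, then heated to ten temperatures (37-66.3 °C), and soluble protein was quantified by TMT mass spectrometry relative to 0.1% DMSO controls. The thermal stability score (sum of log2 fold changes minus the abundance score) was transformed to a z-score; mean of n = 3 experiments.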

Compound in assay [2]: O=[As]([O-])(O)O.[K+] [potassium arsenate]
The assay is described as above. As to conditions: HeLa; arsenate concentration 1 mM. Here is the method:
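Cellular thermal proteome profiling in HeLa cells treated with 1 mM arsenate for 1 h (DMSO pretreatment), heated to ten temperatures (37-66.3 °C). Soluble protein was quantified by TMT mass spectrometry relative to DMSO controls; the thermal stability score was transformed to a z-score; mean of n = 3 experiments.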

[3] abbreviates: arsenate co-treatment: 1 mM arsenate 1 h.
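Note: each temperature applied for 3 min, abundance score taken as mean log2 fold change at the two lowest temperatures, z-score obtained by mean subtraction and division by SD.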

Chain of UniProt Q9NPJ3 (Q9NPJ3 whole entry): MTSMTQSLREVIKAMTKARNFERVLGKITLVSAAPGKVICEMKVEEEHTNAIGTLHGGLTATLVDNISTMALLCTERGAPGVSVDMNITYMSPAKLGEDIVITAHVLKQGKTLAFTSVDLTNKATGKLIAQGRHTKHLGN
Chain of UniProt Q9UGV2 (Q9UGV2 whole entry): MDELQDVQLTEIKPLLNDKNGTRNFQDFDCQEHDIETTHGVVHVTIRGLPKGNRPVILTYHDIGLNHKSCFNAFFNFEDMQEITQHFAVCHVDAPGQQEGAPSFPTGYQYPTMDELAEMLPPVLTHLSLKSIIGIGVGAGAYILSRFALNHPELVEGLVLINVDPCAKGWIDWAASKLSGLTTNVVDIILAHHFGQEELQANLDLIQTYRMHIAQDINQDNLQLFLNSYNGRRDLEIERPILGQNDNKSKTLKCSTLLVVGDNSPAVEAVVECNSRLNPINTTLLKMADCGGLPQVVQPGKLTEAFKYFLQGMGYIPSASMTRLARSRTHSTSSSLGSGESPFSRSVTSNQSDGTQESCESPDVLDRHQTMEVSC
Chain of UniProt Q96MH2 (Q96MH2 whole entry): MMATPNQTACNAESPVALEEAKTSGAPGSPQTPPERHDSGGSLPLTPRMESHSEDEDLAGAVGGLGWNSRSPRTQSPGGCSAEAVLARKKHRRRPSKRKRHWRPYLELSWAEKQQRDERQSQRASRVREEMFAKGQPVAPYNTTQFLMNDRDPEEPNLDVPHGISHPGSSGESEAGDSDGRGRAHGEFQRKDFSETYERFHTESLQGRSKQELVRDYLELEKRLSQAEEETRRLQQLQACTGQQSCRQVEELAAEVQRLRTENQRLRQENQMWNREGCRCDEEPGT
Chain of UniProt Q6QNY0 (Q6QNY0 whole entry): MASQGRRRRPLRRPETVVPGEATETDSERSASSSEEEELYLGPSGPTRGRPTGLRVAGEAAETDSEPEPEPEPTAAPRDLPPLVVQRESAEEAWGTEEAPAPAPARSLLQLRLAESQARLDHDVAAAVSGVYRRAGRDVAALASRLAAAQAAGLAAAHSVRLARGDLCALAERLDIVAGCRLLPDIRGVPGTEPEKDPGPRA
Chain of UniProt Q13608 (Q13608 whole entry): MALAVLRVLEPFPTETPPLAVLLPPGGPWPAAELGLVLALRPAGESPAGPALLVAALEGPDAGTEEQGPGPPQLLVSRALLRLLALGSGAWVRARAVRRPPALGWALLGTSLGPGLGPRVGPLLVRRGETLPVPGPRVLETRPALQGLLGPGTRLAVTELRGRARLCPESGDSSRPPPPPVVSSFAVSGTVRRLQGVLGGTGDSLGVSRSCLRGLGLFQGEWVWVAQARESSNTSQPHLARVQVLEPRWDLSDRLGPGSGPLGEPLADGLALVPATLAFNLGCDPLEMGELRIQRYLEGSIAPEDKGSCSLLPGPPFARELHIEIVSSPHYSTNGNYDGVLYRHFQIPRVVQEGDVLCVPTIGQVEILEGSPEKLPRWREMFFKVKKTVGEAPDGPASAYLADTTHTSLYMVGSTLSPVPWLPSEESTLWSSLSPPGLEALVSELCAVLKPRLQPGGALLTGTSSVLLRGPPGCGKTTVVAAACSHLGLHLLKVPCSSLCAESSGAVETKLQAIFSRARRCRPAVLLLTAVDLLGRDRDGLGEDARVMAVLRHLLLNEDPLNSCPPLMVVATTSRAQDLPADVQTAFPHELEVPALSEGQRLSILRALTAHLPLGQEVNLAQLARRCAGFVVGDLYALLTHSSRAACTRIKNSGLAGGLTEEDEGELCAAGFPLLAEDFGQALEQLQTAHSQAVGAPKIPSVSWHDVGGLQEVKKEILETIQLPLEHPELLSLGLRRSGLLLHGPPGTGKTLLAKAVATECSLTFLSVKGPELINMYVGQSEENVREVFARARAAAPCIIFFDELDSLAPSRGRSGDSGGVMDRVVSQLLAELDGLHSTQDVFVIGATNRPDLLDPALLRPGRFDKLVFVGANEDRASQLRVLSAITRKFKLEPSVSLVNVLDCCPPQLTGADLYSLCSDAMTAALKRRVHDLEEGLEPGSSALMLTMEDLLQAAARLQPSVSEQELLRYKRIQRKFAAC
Chain of UniProt Q13740 (Q13740 whole entry): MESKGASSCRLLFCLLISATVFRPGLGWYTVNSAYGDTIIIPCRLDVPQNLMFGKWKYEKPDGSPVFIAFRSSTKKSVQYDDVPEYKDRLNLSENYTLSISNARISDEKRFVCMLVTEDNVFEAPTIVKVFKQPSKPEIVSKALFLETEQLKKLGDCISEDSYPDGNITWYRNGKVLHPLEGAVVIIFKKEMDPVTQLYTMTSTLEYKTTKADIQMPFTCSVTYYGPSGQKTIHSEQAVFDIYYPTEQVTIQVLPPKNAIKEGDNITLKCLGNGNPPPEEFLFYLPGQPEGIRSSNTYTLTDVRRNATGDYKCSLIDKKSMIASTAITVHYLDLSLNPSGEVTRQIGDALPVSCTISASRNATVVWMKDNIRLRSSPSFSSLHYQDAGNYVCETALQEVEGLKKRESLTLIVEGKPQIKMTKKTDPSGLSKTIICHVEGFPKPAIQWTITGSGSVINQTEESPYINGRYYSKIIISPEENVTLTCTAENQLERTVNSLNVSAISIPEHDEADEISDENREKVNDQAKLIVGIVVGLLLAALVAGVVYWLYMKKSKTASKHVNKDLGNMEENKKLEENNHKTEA
Chain of UniProt Q92905 (Q92905 whole entry, looked up): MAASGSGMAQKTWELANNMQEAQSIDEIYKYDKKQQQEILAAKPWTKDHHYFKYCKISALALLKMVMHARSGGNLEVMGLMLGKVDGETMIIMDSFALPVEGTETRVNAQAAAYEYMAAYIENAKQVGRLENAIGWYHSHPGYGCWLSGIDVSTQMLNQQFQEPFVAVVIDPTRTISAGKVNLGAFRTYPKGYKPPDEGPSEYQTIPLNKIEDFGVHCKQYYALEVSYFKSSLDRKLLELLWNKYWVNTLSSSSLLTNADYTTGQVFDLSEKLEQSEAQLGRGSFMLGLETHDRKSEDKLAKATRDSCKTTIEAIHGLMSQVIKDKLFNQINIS
Chain of UniProt P20618 (P20618 whole entry): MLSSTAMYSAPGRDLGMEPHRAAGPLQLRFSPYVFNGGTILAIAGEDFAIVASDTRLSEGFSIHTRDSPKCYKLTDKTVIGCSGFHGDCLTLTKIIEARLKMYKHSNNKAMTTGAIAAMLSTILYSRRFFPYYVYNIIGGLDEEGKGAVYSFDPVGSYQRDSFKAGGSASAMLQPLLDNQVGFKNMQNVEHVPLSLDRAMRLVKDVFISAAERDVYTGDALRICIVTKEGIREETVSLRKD
Chain of UniProt P51511 (P51511 whole entry, looked up): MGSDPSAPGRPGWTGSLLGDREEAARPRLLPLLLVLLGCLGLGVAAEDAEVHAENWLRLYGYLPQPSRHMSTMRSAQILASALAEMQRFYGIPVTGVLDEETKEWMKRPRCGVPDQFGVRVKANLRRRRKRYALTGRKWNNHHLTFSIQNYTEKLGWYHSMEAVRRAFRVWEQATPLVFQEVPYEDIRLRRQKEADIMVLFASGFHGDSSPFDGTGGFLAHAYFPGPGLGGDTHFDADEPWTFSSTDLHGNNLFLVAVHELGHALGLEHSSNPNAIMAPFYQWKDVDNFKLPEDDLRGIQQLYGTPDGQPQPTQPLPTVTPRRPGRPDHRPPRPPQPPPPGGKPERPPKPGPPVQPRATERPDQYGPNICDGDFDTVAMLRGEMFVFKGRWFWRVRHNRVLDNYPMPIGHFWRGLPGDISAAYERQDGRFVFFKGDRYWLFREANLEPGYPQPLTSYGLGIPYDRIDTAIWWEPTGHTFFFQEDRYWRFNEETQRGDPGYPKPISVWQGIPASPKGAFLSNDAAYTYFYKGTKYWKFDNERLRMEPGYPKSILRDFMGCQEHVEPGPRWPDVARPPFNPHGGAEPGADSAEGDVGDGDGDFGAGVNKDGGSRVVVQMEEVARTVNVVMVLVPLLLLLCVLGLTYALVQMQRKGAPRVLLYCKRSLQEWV
Chain of UniProt P01130 (P01130 whole entry): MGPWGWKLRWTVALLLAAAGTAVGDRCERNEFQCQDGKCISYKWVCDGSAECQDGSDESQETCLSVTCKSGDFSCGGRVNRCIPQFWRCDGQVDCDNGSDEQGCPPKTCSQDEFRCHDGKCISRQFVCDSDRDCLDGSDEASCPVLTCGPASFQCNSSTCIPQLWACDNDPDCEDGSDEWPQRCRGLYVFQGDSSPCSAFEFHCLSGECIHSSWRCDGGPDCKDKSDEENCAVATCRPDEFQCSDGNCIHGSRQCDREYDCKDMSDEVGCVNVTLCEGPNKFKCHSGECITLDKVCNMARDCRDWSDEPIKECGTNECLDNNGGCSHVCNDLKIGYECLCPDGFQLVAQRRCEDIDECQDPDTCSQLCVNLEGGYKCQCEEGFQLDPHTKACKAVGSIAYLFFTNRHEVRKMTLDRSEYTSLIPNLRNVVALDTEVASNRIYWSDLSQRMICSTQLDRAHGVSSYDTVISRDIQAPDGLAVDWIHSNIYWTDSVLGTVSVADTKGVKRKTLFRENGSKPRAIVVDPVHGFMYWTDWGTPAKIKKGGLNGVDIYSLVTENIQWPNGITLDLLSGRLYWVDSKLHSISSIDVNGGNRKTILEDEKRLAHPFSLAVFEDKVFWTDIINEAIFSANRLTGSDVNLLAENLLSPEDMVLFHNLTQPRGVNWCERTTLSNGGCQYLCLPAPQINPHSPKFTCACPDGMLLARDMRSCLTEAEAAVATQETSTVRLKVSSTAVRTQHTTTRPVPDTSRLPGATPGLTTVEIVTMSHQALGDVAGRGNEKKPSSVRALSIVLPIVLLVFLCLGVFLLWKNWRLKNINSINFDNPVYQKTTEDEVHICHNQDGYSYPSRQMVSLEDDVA
Chain of UniProt Q99714 (Q99714 whole entry): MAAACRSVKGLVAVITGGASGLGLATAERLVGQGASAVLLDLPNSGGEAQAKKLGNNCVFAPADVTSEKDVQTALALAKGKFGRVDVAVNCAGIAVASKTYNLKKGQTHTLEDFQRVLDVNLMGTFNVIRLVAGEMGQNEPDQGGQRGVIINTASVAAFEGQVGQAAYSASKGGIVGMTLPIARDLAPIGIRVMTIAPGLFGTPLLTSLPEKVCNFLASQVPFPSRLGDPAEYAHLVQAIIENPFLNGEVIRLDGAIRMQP

In the case of TRAPPC8 (UniProt Q9Y2L5), the thermal stability z-score in assay [1] (setting [3]) worked out at 0.257; in assay [1] (arsenate co-treatment: none), 0.348; in assay [2], 0.311.
The matching figures for ALCAM (UniProt Q13740): 0.558, 0.931 and 0.534.
Regarding DNTTIP2 (UniProt Q5QJE6), the thermal stability z-score in assay [1] (setting [3]) came to 0.201; in assay [1] (arsenate co-treatment: none) it was 0.12; in assay [2], 0.279.
For the target ZMYM1 (UniProt Q5SVZ6), the figures for the thermal stability z-score in assay [1] (setting [3]), in assay [1] (arsenate co-treatment: none) and in assay [2] were 0.0919, 0.0471 and -0.798, respectively.
As for LDLR (UniProt P01130), the thermal stability z-score in assay [1] (setting [3]) was 0.0821; in assay [1] (arsenate co-treatment: none) it was -0.206; in assay [2], -0.0946.
Taken in the same sequence, the figures for KIF1BP (UniProt Q96EK5) were 0.371, -0.0427 and 0.587.
The matching figures for GNL1 (UniProt P36915): -0.411, -0.369 and 0.175.
Taken in the same sequence, the figures for AMMECR1 (UniProt Q9Y4X0) were -0.157, -0.0642 and -0.217.
Consider BLOC1S3 (UniProt Q6QNY0), for which the thermal stability z-score in assay [1] (setting [3]) is 0.923; in assay [1] (arsenate co-treatment: none) it was 0.625; in assay [2], 0.0424.
On to NDRG3 (UniProt Q9UGV2), for which the thermal stability z-score is -0.101 in assay [1] (setting [3]), -0.269 in assay [1] (arsenate co-treatment: none) and -1.65 in assay [2].
Taken in the same sequence, the figures for SMYD5 (UniProt Q6GMV2) were -0.19, -0.177 and 0.224.
For the target ACOT13 (UniProt Q9NPJ3), the thermal stability z-score in assay [1] (setting [3]) was -0.279; in assay [1] (arsenate co-treatment: none) it was -0.198; in assay [2], -0.202.
Taken in the same sequence, the figures for CAMKK1 (UniProt Q8N5S9) were 0.776, 1.45 and 4.72.
On to CD70 (UniProt P32970), for which the thermal stability z-score in assay [1] (setting [3]) was 1.03; in assay [1] (arsenate co-treatment: none) it was 0.355; in assay [2] it was -0.313.
The matching figures for NPTN (UniProt Q9Y639): 0.275, -0.0241 and 0.798.
The matching figures for GRAMD1A (UniProt Q96CP6): -1.5, -1.05 and 0.0677.
PSMB1 (UniProt P20618): the thermal stability z-score in assay [1] (setting [3]) came to 1; in assay [1] (arsenate co-treatment: none), 0.743; in assay [2], 0.497.
With PEX6 (UniProt Q13608), the results for the thermal stability z-score in assay [1] (setting [3]), in assay [1] (arsenate co-treatment: none) and in assay [2] were 0.132, 0.339 and 0.938, respectively.
The matching figures for SPC24 (UniProt Q8NBT2): -0.122, 0.106 and -0.0105.
Taken in the same sequence, the figures for COPS5 (UniProt Q92905) were 0.384, -0.0535 and 0.276.
The matching figures for NAA10 (UniProt P41227): 1.16, 0.982 and 0.405.
Consider MMP15 (UniProt P51511), for which the thermal stability z-score in assay [1] (setting [3]) is -0.901; in assay [1] (arsenate co-treatment: none), -0.632; in assay [2], -0.00399.
The matching figures for CARD19 (UniProt Q96LW7): 0.507, 1.37 and 0.524.
Taken in the same sequence, the figures for GID8 (UniProt Q9NWU2) were 0.00199, 0.0715 and -0.0145.
As for CDK13 (UniProt Q14004), the results for the thermal stability z-score in assay [1] (setting [3]), in assay [1] (arsenate co-treatment: none) and in assay [2] were 0.155, -0.0381 and -0.0661, respectively.
Take MEA1 (UniProt Q16626): the thermal stability z-score amounted to 1.48 in assay [1] (setting [3]), 1.28 in assay [1] (arsenate co-treatment: none) and 0.711 in assay [2].
The matching figures for HSD17B10 (UniProt Q99714): 0.921, 0.151 and -1.29.
The matching figures for G3V3G9 (UniProt P40855): -0.319, -0.13 and -0.695.
On to HEXIM2 (UniProt Q96MH2), for which the thermal stability z-score in assay [1] (setting [3]) was -0.264; in assay [1] (arsenate co-treatment: none) it was 0.637; in assay [2] it was 0.53.
The matching figures for PTPMT1 (UniProt Q8WUK0): 0.619, 0.326 and 0.767.
The matching figures for USP39 (UniProt Q53GS9): -0.384, -0.174 and -0.489.
In the case of GTPBP6 (UniProt O43824), the results for the thermal stability z-score in assay [1] (setting [3]), in assay [1] (arsenate co-treatment: none) and in assay [2] were 0.0509, -0.133 and 0.043, respectively.
For the target PUS7 (UniProt Q96PZ0), the thermal stability z-score is -0.447 in assay [1] (setting [3]), 0.26 in assay [1] (arsenate co-treatment: none) and 0.651 in assay [2].
Taken in the same sequence, the figures for PPM1G (UniProt O15355) were 0.2, 0.916 and -0.0978.
The matching figures for HAT1 (UniProt O14929): 0.352, 0.375 and 0.265.
Taken in the same sequence, the figures for EIF3A (UniProt Q14152) were 0.713, 0.446 and 0.432.
For TRIP10 (UniProt Q15642), the thermal stability z-score in assay [1] (setting [3]) was 0.15; in assay [1] (arsenate co-treatment: none), 0.0699; in assay [2], -0.0864.
On to CAPZB (UniProt P47756), for which the thermal stability z-score was -0.059 in assay [1] (setting [3]), 0.144 in assay [1] (arsenate co-treatment: none) and 0.454 in assay [2].
The matching figures for PROSER2 (UniProt Q86WR7): -0.111, -0.0827 and -0.644.
PTEN (UniProt P60484): the thermal stability z-score in assay [1] (setting [3]) is -0.0735; in assay [1] (arsenate co-treatment: none), -0.0591; in assay [2], -0.185.
The matching figures for DARS (UniProt P14868): 0.186, -0.0144 and -0.593.
The matching figures for FUT11 (UniProt Q495W5): -1.71, -0.756 and 0.00651.
